In patent US20240316171A1, “COMPOSITIONS AND METHODS FOR TARGETED IMMUNOTHERAPY” (Dana-Farber Cancer Institute, Inc., priority 2018, published 2024):
Read-outs that look alike come from different tables or passages of the source.

What was measured:
[1] = Stock solutions/solubility; format: physicochemical; conditions: thermodynamic from solid
Protocol: Compound 1 was not soluble in buffer solution 50 mM 4-(2-hydroxyethyl)-1-piperazineethanesulfonic acid (HEPES) pH 7 at 2 mg/ml at room temperature overnight. In contrast, DMSO readily dissolved compound 1 at 2 mg/ml forming a clear solution. Compound 2 dissolved immediately at 1.5 mg/ml in buffer solution 50 mM HEPES pH 7 forming a yellow solution.

[2] = Uncaging in samples not treated with H2O2; format: physicochemical
Excerpt: Fluorescence-detected HPLC confirmed that H2O2 reaction with compound 3 produced the desired product (4). […] Addition of 0.5M EDTA, pH 8.0 (Ultrapure Grade, Boston BioProducts) to the samples remedied the undesired uncaging of the compounds.

[3] = Uncaging of compound 1 with hydrogen peroxide (fluorescence, HPLC); conditions: relatively high H2O2 concentrations (100 mM), HPLC analysis of products
Protocol: Hydrogen peroxide is expected to uncage compound 1 to produce compound 2. […] 20 μM compound 1 samples were prepared by 1:100 dilution of stock into 50 mM HEPES pH 7 buffer and the reaction started by […] to give final concentrations of 0.3, 0.03 or 0.003 percent. The concentration of the 30% stock H2O2 was confirmed by measuring the absorbance at 240 nm using an extinction coefficient of 43.6 M^−1 cm^−1.
A time-course of the kinetic response of compound 1 to H2O2 at 100 mM H2O2 is illustrated in FIG. 10. Multiple (3) peaks, including compound 1, were observed by HPLC. […] The possible side products are shown below.

[4] = 50 mM HEPES buffer, aqueous buffer, 50 mM HEPES pH 7, compound 1 at room temperature overnight, read-out: solubility in buffer solution

| solubility [1, 4] [µg/mL] | uncaging without H2O2 [2] | solubility ([1]; organic solvent or mixture, DMSO, clear solution, read-out: solubility in DMSO) [µg/mL] | stability of maleimide moiety in the presence of H2O2 [3] | Structure (SMILES) |
| --- | --- | --- | --- | --- |
| ≥ 1500 |  |  |  | O=C(CCN1C(=O)C=CC1=O)NCCOCCOCCC(=O)Nc1ccc2c(c1)C(=O)OC21c2ccc(O)cc2Oc2cc(O)ccc21 [Compound 2, N-(3′,6′-dihydroxy-3-oxo-3H-spiro[isobenzofuran-1,9′-xanthen]-5-yl)-3-(2-(2-(3-(2,5-dioxo-2,5-dihydro-1H-pyrrol-1-yl)propanamido)ethoxy)ethoxy)propanamide] |
|  | Slow uncaging |  |  | CC1(C)[C@@H]2C[C@H]1C1OB(c3ccc4c(c3)Oc3cc(B5OC6C[C@@H]7C[C@@H](C7(C)C)[C@]6(C)O5)ccc3C43OC(=O)c4cc(NC(=O)CCOCCOCCNC(=O)CCN5C(=O)CC(SC[C@H](N)C(=O)O)C5=O)ccc43)O[C@@]1(C)C2 (stereo partly drawn) [Compound 3, S-(2,5-dioxo-1-(3-oxo-3-((2-(2-(3-oxo-3-((3-oxo-3′-((3aS,4S,6S)-3a,5,5-trimethylhexahydro-4,6-methanobenzo[d][1,3,2]dioxaborol-2-yl)-6′-((4R,6R,7aS)-5,5,7a-trimethylhexahydro-4,6-methanobenzo[d][1,3,2]dioxaborol-2-yl)-3H-spiro[isobenzofuran-1,9′-xanthen]-5-yl)amino)propoxy)ethoxy)ethyl)amino)propyl)pyrrolidin-3-yl)cysteine] |
| < 2000 | Slow uncaging | ≥ 2000 | maleimide moiety is unstable | CC1(C)[C@@H]2CC3OB(c4ccc5c(c4)Oc4cc(B6OC7C[C@@H]8C[C@@H](C8(C)C)[C@]7(C)O6)ccc4C54OC(=O)c5cc(NC(=O)CCOCCOCCNC(=O)CCN6C(=O)C=CC6=O)ccc54)O[C@@]3(C)[C@H]1C2 (stereo partly drawn) [Compound 1, 3-(2,5-dioxo-2,5-dihydro-1H-pyrrol-1-yl)-N-(2-(2-(3-oxo-3-((3-oxo-3′,6′-bis((3aS,4S,6S)-3a,5,5-trimethylhexahydro-4,6-methanobenzo[d][1,3,2]dioxaborol-2-yl)-3H-spiro[isobenzofuran-1,9′-xanthen]-5-yl)amino)propoxy)ethoxy)ethyl)propanamide] |
